Reference: patent publication US11826326B2, “Benzoic acid or a salt and derivative thereof for use in preventing or treating depression” (EXCELSIOR PHARMATECH LABS, priority 2017, dated 2023)

Experiments:
[1] = test system: patients with dementia; details: depression in patients with dementia; cited from earlier work
[2] = test system: patients with MDD; experiment: 17-Item Hamilton rating scale for depression (HAMD-17) in randomized, double-blind, placebo-controlled trial; type: in vivo, human; details: for HAMD-17 Difference, Mean ± SD: baseline to week 8, 250-1500 mg/day, n = 20, p=0.011 vs placebo; for HAMD-17 score before treatment: baseline
Protocol: (§1) It was conducted a randomized, double-blind, placebo-controlled trial in Taiwan. […] At the baseline and at the end of week 2, 4, 6 and 8, the assessments of 17-Item Hamilton rating scale for depression (HAMD-17) (Hamilton 1960), perceived stress scale (PSS), and global assessment of function (GAF) were arranged.
(§2) This study was a pilot eight weeks trial with the aim of examining sodium benzoate for the treatment of MDD. Patients were evaluated by research psychiatrists after a thorough medical and neurological workup. The structured clinical interview for DSM-IV (SCID) (American Psychiatric Association 1994) was conducted for diagnosis, and eligible patients diagnosed with MDD by DSM-IV (American Psychiatric Association 1994b) were recruited. […] The dosage of study drugs was adjusted according to clinical evaluation.
(§3) The data analyses were based on the intent-to-treat principle. The last observation carried forward was used to analyze all available data from the entire sample (i.e., cases with complete and incomplete data). A level of 0.05 (two-sided value) for type I errors was adopted for all analyses for statistical significance. Demographic characteristics, baseline and endpoint symptomatology were compared between two groups by t test (or Mann-Whitney U test) for continuous variables and chi-square test (or Fisher's exact test) for categorical variables.

[3] = test system: patients with MDD; experiment: Global assessment of function (GAF) in randomized, double-blind, placebo-controlled trial; type: in vivo, human; details: for GAF Difference, Mean ± SD: baseline to week 8, 250-1500 mg/day, n = 20, table p 0.103 vs placebo
Protocol: as §1
as §2, with “Patients” for “This study was a pilot eight weeks trial with the aim of examining sodium benzoate for the treatment of MDD. Patients”
as §3

[4] = test system: patients with MDD; experiment: Perceived stress scale (PSS) in randomized, double-blind, placebo-controlled trial; type: in vivo, human; details: for PSS Difference, Mean ± SD: baseline to week 8, 250-1500 mg/day, n = 20, p=0.022 vs placebo
Protocol: as §1, §2, §3

[5] = test system: patients with MDD; experiment: Mini-mental state examination (MMSE) score of single subjects of the treatment group; type: in vivo, human; details: for MMSE score before treatment: baseline
Description: At the same time, the mini-mental state examination (MMSE) score, which is used to evaluate cognitive impairment, has improved from 26 to 30. […] Furthermore, person two has a decrease of HAMD-17 score from 26 to 12, and improved cognitive function as shown by an increased MMSE score from 23 to 26.

[6] = test system: patients with MDD; experiment: Safety assessment: UKU side-effects rating scale, routine laboratory tests, EKG, dropout; type: in vivo, human
Protocol: In addition, the assessments of systemic side effects were examined biweekly by routine physical and neurological examinations and the Udvalg for Kliniske Undersogelser (UKU) side-effects rating scale (Lingjaerde, Ahlfors et al. 1987). The routine laboratory tests, including complete blood count (CBC), biochemistry, urine analysis and electrocardiogram (EKG), were checked at the baseline and at the end of week 8.
Further, clinical assessment of safety was performed every week during the study period by face-to-face or telephone interview. Drop out was determined by research psychiatrists or patients if continuation of the study was regarded obviously more risky than beneficial.

[7] = test system: D-amino acid oxidase (DAAO); details: cited from earlier work
[8] = single subject one, after 8 weeks
[9] = single subject three, after treatment
[10] = single subject two, after treatment
[11] = week 0, n = 20, before treatment

SMILES: CN[C@H]1CC[C@@H](c2ccc(Cl)c(Cl)c2)c2ccccc21 [sertraline]
- reduction of depression scores compared with placebo [1]: did not differ from the placebo group

SMILES: O=C([O-])c1ccccc1.[Na+] [sodium benzoate]
- improvement in HAMD-17 scores compared with placebo therapy ([2]; 8 weeks): greater improvement
- HAMD-17 Endpoint, Mean ± SD ([2]; after 8 weeks, 250-1500 mg/day, n = 20, LOCF): 19.3 ± 6.4
- HAMD-17 Difference, Mean ± SD [2]: 7.5±4.9
- HAMD-17 Difference, Mean ± SD ([2]; listed as Benzoate): −7.5 ± 4.9
- HAMD-17 score decrease ([2]; single subject one, 8 weeks): 20
- HAMD-17 score after treatment [2, 8]: 4
- HAMD-17 score before treatment ([2]; single subject one): 24
- HAMD-17 score decrease ([2]; single subject three): 16
- HAMD-17 score after treatment [2, 9]: 15
- HAMD-17 score before treatment ([2]; single subject three): 31
- HAMD-17 score after treatment [2, 10]: 12
- HAMD-17 score before treatment ([2]; single subject two): 26
- HAMD-17 Baseline, Mean ± SD [2, 11]: 26.7 ± 5.2
- improvement in GAF scores compared with placebo therapy ([3]; 8 weeks): slightly greater improvement
- GAF Difference, Mean ± SD [3]: 5.5±6.0
- GAF Difference, Mean ± SD ([3]; listed as Benzoate): 5.5 ± 6.0
- GAF Baseline, Mean ± SD [3, 11]: 57.4 ± 8.4
- improvement in PSS scores compared with placebo therapy ([4]; 8 weeks): greater improvement
- PSS Endpoint, Mean ± SD ([4]; after 8 weeks, 250-1500 mg/day, n = 20, LOCF, p 0.019 vs placebo): 28.9 ± 10.8
- PSS Difference, Mean ± SD [4]: 6.4±9.9
- PSS Difference, Mean ± SD ([4]; listed as Benzoate): −6.4 ± 9.9
- PSS Baseline, Mean ± SD [4, 11]: 35.2 ± 5.8
- MMSE score after treatment [5, 8]: 30
- MMSE score before treatment ([5]; single subject one): 26
- MMSE score after treatment [5, 9]: 25
- MMSE score before treatment ([5]; single subject three): 23
- MMSE score after treatment [5, 10]: 26
- MMSE score before treatment ([5]; single subject two): 23
- Treatment-emergent adverse events by UKU side-effects rating scale ([6]; 8-week treatment): mild and not warranting medical treatment
- dropout due to side effects ([6]; 8-week treatment): No dropout was due to side effects
- values of routine CBC, biochemistry and EKG tests after treatment ([6]; baseline and end of week 8): all within the normal ranges without a significant change
- commonly seen side effects of anti-depression medication (nausea, nervousness, restlessness, irregular heart rate, sweating, constipation) ([6]; subjects from the treatment group): not observed
- inhibition of DAAO activity [7]: can inhibit DAAO activity

SMILES: CN1CCN2c3ncccc3Cc3ccccc3C2C1 (stereo not drawn) [mirtazapine]
- reduction of depression scores compared with placebo [1]: did not differ from the placebo group

SMILES: O=C(O)c1ccccc1 [Benzoic acid]
- inhibition of DAAO activity [7]: can inhibit DAAO activity
